Results from patent publication US20260103461A1, “ESTROGEN RECEPTOR MODULATORS AND USES THEREOF” (Olema Pharmaceuticals, Inc., priority 2022, published 2026).

target: T1, estrogen receptor (Homo sapiens, UniProt P03372); experiment: AP (alkaline phosphatase) assay in ECC-1 cells, agonist mode and antagonist mode; assay type: cell-based; conditions: 3 days, absence of E2 (agonist mode) or 500 pM E2 (antagonist mode), AP activity normalized to 500 pM E2 alone
T1 construct: endogenous in cells; host or cells: ECC-1 cells
T1 sequence (P03372 1-595): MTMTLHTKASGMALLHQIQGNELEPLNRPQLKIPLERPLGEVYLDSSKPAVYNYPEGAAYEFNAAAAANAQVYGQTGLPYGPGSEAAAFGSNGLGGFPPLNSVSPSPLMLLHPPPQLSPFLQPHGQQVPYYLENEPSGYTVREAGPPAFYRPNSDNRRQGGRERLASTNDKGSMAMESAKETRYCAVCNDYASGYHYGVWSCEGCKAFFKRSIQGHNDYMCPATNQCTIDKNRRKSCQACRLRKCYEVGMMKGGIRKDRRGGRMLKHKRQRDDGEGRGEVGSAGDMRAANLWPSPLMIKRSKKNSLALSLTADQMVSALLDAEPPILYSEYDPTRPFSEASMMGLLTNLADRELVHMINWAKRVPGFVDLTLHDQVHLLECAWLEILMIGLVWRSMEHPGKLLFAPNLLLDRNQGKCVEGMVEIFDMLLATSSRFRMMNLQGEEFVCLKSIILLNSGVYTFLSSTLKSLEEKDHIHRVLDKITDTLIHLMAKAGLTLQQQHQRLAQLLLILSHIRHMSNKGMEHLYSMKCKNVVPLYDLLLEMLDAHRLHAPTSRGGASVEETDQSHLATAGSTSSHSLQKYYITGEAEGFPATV
Description: ECC-1 cells were trypsinized and resuspended in hormone-depleted media and plated at a density of 15 k cells per well into a 96-well plate for at least 4 hours. Cells were treated with test compounds in the absence of E2 (for agonist mode) or in the presence of 500 pM E2 (for antagonist mode) for 3 days and plates were subsequently frozen at −80° C. Thawed plates were incubated with a chromogenic substrate of AP, p-nitrophenyl phosphate (Thermo Fisher Scientific), for 40 minutes at 42° C., and absorbances were read at 405 nm. AP activity was normalized to the activity of 500 pM E2 alone.
The compound numbers correspond to the compound numbers of Table 1 and 2. Compounds having an activity designated as “+” provided estrogen receptor agonism having (i) at least 80% increase in the E2-normalized signal in the AP assay (agonist mode) and (ii) no more than 80% reduction in the E2-normalized signal in the AP assay (antagonist mode). Compounds having an activity designated as “++” provided estrogen receptor antagonism having (i) between 10% and 80% increase in the E2-normalized signal in the AP assay (agonist mode) and (ii) between 10% and 80% reduction in the E2-normalized signal in the AP assay (antagonist mode).

SMILES | Activity (estrogen receptor modulation, agonism and antagonism)
C[C@@H]1Cc2c([nH]c3ccccc23)[C@@H](c2ncc(OC3CN(CCCF)C3)s2)N1CC(F)(F)CO [Example I-22, 2,2-difluoro-3-[(1S,3R)-1-[5-[1-(3-fluoropropyl)azetidin-3-yl]oxythiazol-2-yl]-3-methyl-1,3,4,9-tetrahydropyrido[3,4-b]indol-2-yl]propan-1-ol] | ++ (estrogen receptor antagonism having (i) between 10% and 80% increase in the E2-normalized signal in the AP assay (agonist mode) and (ii) between 10% and 80% reduction in the E2-normalized signal in the AP assay (antagonist mode))
C[C@@H]1Cc2c([nH]c3ccccc23)[C@@H](c2ccc(O[C@@H]3CCN(CCCF)C3)s2)N1CC(F)F [Example I-19, (1S,3R)-2-(2,2-difluoroethyl)-1-[5-[(3R)-1-(3-fluoropropyl)pyrrolidin-3-yl]oxy-2-thienyl]-3-methyl-1,3,4,9-tetrahydropyrido[3,4-b]indole] | +++ (estrogen receptor antagonism (i) with pIC50 greater than 7.5 and at least a 10% reduction in the E2-normalized signal in the AP assay (antagonist mode); and no more than 10% increase in E2-normalized signal in the AP assay (agonist mode))
C[C@@H]1Cc2c([nH]c3ccccc23)[C@@H](c2cnc(O[C@@H]3CCN(CCCF)C3)s2)N1CC(C)(C)F [Example I-23, 5-[(1S,3R)-2-(2-fluoro-2-methyl-propyl)-3-methyl-1,3,4,9-tetrahydropyrido[3,4-b]indol-1-yl]-2-[(3R)-1-(3-fluoropropyl)pyrrolidin-3-yl]oxy-thiazole] | +++ (estrogen receptor antagonism (i) with pIC50 greater than 7.5 and at least a 10% reduction in the E2-normalized signal in the AP assay (antagonist mode); and no more than 10% increase in E2-normalized signal in the AP assay (agonist mode))
C[C@@H]1Cc2c([nH]c3ccccc23)[C@@H](c2ccc(O[C@H]3CCN(CCCF)C3)s2)N1CC(C)(C)F [Example I-4, (3S)-3-({5-[(1S,3R)-2-(2-fluoro-2-methylpropyl)-3-methyl-1H,2H,3H,4H,9H-pyrido[3,4-b]indol-1-yl]thiophen-2-yl}oxy)-1-(3-fluoropropyl)pyrrolidine] | +++ (estrogen receptor antagonism (i) with pIC50 greater than 7.5 and at least a 10% reduction in the E2-normalized signal in the AP assay (antagonist mode); and no more than 10% increase in E2-normalized signal in the AP assay (agonist mode))
C[C@@H]1Cc2c([nH]c3ccccc23)[C@@H](c2cnc(O[C@H]3CCCN(CCCF)C3)s2)N1CC(F)(F)CO [Example I-38] | + (estrogen receptor agonism having (i) at least 80% increase in the E2-normalized signal in the AP assay (agonist mode) and (ii) no more than 80% reduction in the E2-normalized signal in the AP assay (antagonist mode))
C[C@@H]1Cc2c([nH]c3ccccc23)[C@@H](c2cnc(O[C@@H]3CON(CCCF)C3)s2)N1CC(F)(F)CO [Example I-36, 2,2-difluoro-3-[(1S,3R)-1-[2-[(4S)-2-(3-fluoropropyl)isoxazolidin-4-yl]oxythiazol-5-yl]-3-methyl-1,3,4,9-tetrahydropyrido[3,4-b]indol-2-yl]propan-1-ol] | + (estrogen receptor agonism having (i) at least 80% increase in the E2-normalized signal in the AP assay (agonist mode) and (ii) no more than 80% reduction in the E2-normalized signal in the AP assay (antagonist mode))
C[C@@H]1Cc2c([nH]c3ccccc23)[C@@H](c2ncc(OC3CN(CCCF)C3)s2)N1CC(F)F [Example I-18, 2-[(1S,3R)-2-(2,2-difluoroethyl)-3-methyl-1,3,4,9-tetrahydropyrido[3,4-b]indol-1-yl]-5-[1-(3-fluoropropyl)azetidin-3-yl]oxy-thiazole] | ++ (estrogen receptor antagonism having (i) between 10% and 80% increase in the E2-normalized signal in the AP assay (agonist mode) and (ii) between 10% and 80% reduction in the E2-normalized signal in the AP assay (antagonist mode))
